From patent US9556165B2 (priority 2012, dated 2017) come the findings set out here.

Holding throughout (format): cell-based
One experiment concerns E. coli ATCC25922. In words: MIC determination, broth microdilution (CLSI). To be noted: Escherichia coli, ATCC25922, strain 1.
The test system of the next experiment is K. pneumoniae 60. The experiment in a line: MIC determination, broth microdilution (CLSI). To be noted: Klebsiella pneumoniae, 60, strain 2.
In the next experiment the test system is E. cloacae 34654. In words: MIC determination, broth microdilution (CLSI). Particulars: Enterobacter cloacae, 34654, strain 3.
In another experiment the test system is C. freundii K21/3034. In words: MIC determination, broth microdilution (CLSI). To be noted: Citrobacter freundii, K21/3034, strain 4.
The test system of a further experiment is M. morganii 126/3048. In words: MIC determination, broth microdilution (CLSI). Particulars: Morganella morganii, 126/3048, strain 5.
A further experiment concerns P. aeruginosa PAO1. In words: MIC determination, broth microdilution (CLSI). To be noted: Pseudomonas aeruginosa, PAO1, strain 6. A general note: Broth dilution looks for growth in wells or tubes with falling amounts of substance.
Experiment [1] relates to P. aeruginosa 2297 (AmpC wt). In words: MIC determination, broth microdilution (CLSI). Particulars: Pseudomonas aeruginosa, strain 7.
In experiment [2] the test system is P. aeruginosa 2297-con (AmpC derepressed). In words: MIC determination, broth microdilution (CLSI). To be noted: Pseudomonas aeruginosa, read-out: strain 8 MIC, strain 8.
The next experiment relates to A. baumannii ATCC15308. In words: MIC determination, broth microdilution (CLSI). To be noted: Acinetobacter baumannii, ATCC15308, strain 9.
The subject of the next experiment is S. maltophilia ICB7569. In words: MIC determination, broth microdilution (CLSI). To be noted: Stenotrophomonas maltophilia, ICB7569, strain 10.
A further experiment relates to S. aureus 133. In words: MIC determination, broth microdilution (CLSI).
A further experiment relates to H. influenzae ATCC 49247. The experiment in a line: MIC determination, broth microdilution (CLSI). To be noted: Haemophilus influenzae, ATCC49247, strain 12; broth microdilution; read-out: MIC strain 12 (H. influenzae ATCC 49247).
Another experiment concerns S. pneumoniae 113. In words: MIC determination, broth microdilution (CLSI). Particulars: Streptococcus pneumoniae, 113, strain 13; broth microdilution; read-out: MIC strain 13 (S. pneumoniae 113).
The test system of another experiment is B. fragilis 6688. In words: MIC determination, broth microdilution (CLSI). Particulars: Bacteroides fragilis, 6688, strain 15; broth microdilution; read-out: MIC strain 15 (B. fragilis 6688).
The next experiment concerns C. perfringens DSM756. In words: microbe, parasite or virus in culture. To be noted: Clostridium perfringens, DSM756, read-out: MIC strain 16 (C. perfringens DSM756), strain 16; broth microdilution.
For the next experiment, the system named is E. coli J62. In words: MIC determination, broth microdilution (CLSI). To be noted: Escherichia coli, J62, strain 17; broth microdilution; read-out: MIC strain 17 (E. coli J62).
The subject of the next experiment is E. coli J62-TEM-3. The experiment in a line: MIC determination, broth microdilution (CLSI). To be noted: Escherichia coli, J62TEM3, read-out: MIC strain 18 (E. coli J62-TEM-3), strain 18; broth microdilution.
The next experiment concerns Bacteria. The experiment in a line: MIC determination in combination with β-lactamase inhibitors (constant 4 μg/mL).
[3] abbreviates: Staphylococcus aureus, 133, strain 14, broth microdilution, read-out: MIC strain 14 (S. aureus 133).
[4] abbreviates: Staphylococcus aureus, 133, strain 11, read-out: strain 11 MIC.

SMILES strings stand for the structures. Values after ≈ are worked out from the molar mass of the structure shown. Read-outs that look alike come from different tables or passages of the source.

For `CC(=N)N1CC[C@H](NC(=N)c2ccc(OCCO/N=C(\C(=O)N[C@@H]3C(=O)N(OS(=O)(=O)O)C3(C)C)c3csc(N)n3)cc2)C1` [Example 43, (2Z)-2-(2-Amino-1,3-thiazol-4-yl)-N-[(3S)-2,2-dimethyl-4-oxo-1-(sulfooxy)azetidin-3-yl]-2-{[2-(4-{N-[(3S)-1-ethanimidoylpyrrolidin-3-yl]carbamimidoyl}phenoxy)ethoxy]-imino}ethanamide], the MIC stood at 0.5 µg/mL (≈ 0.767 µM) with E. coli ATCC25922; 0.5 µg/mL (≈ 0.767 µM) in the experiment with K. pneumoniae 60; 1 µg/mL (≈ 1.53 µM) against E. cloacae 34654; 0.25 µg/mL (≈ 0.384 µM) in the experiment on C. freundii K21/3034; 1 µg/mL (≈ 1.53 µM) against M. morganii 126/3048; 8 µg/mL (≈ 12.3 µM) against P. aeruginosa PAO1. Also, the MIC in experiment [1] turned out to be 8 µg/mL (≈ 12.3 µM); in experiment [2] it was 8 µg/mL (≈ 12.3 µM); against A. baumannii ATCC15308, 0.5 µg/mL (≈ 0.767 µM); against S. maltophilia ICB7569 it was 32 µg/mL (≈ 49.1 µM); in the experiment on S. aureus 133 (setting [3]), 4 µg/mL (≈ 6.14 µM); in the experiment with H. influenzae ATCC 49247, 0.125 µg/mL (≈ 0.192 µM). Besides, the MIC was not above 0.063 µg/mL with S. pneumoniae 113; 8 µg/mL (≈ 12.3 µM) with B. fragilis 6688; 2 µg/mL (≈ 3.07 µM) in the experiment with C. perfringens DSM756; 0.5 µg/mL (≈ 0.767 µM) in the experiment with E. coli J62; 8 µg/mL (≈ 12.3 µM) in the experiment with E. coli J62-TEM-3. The “MIC strain 19 (E. coli J62-TEM-3 + 4 μg/mL clavulanic acid)” value in the experiment with Bacteria worked out at 0.25 µg/mL. Also, the “MIC strain 20 (E. coli J62-TEM-3 + 4 μg/mL sulbactam)” value in the experiment on Bacteria was determined as 0.5 µg/mL. Besides, in the experiment with Bacteria, the “MIC strain 21 (E. coli J62-TEM-3 + 4 μg/mL tazobactam)” value was 0.5 µg/mL.

Take `CC1(C)[C@H](NC(=O)/C(=N\OCc2ccc(C(=N)N)cc2)c2csc(N)n2)C(=O)N1OS(=O)(=O)O` [Example 57, (2Z)-2-(2-Amino-1,3-thiazol-4-yl)-2-{[(4-carbamimidoylbenzyl)oxy]imino}-N-[(3S)-2,2-dimethyl-4-oxo-1-(sulfooxy)azetidin-3-yl]ethanamide]: the MIC amounted to 1 µg/mL (≈ 1.95 µM) in the experiment on E. coli ATCC25922; 2 µg/mL (≈ 3.91 µM) in the experiment with K. pneumoniae 60; 2 µg/mL (≈ 3.91 µM) against E. cloacae 34654; 1 µg/mL (≈ 1.95 µM) against C. freundii K21/3034; 1 µg/mL (≈ 1.95 µM) against M. morganii 126/3048; 32 µg/mL (≈ 62.6 µM) against P. aeruginosa PAO1. The MIC is 32 µg/mL (≈ 62.6 µM) in experiment [1]; 16 µg/mL (≈ 31.3 µM) in experiment [2]; 2 µg/mL (≈ 3.91 µM) against A. baumannii ATCC15308; 32 µg/mL (≈ 62.6 µM) against S. maltophilia ICB7569; not above 0.063 µg/mL with S. aureus 133 (setting [4]); 4 µg/mL (≈ 7.82 µM) in the experiment with S. aureus 133 (setting [3]). For the same compound, the MIC in the experiment on H. influenzae ATCC 49247 is 0.125 µg/mL (≈ 0.244 µM); in the experiment with S. pneumoniae 113, not above 0.063 µg/mL; in the experiment on B. fragilis 6688 it was 1 µg/mL (≈ 1.95 µM); with C. perfringens DSM756, 2 µg/mL (≈ 3.91 µM); in the experiment with E. coli J62 it was 2 µg/mL (≈ 3.91 µM); in the experiment on E. coli J62-TEM-3 it was 32 µg/mL (≈ 62.6 µM). Also, the “MIC strain 19 (E. coli J62-TEM-3 + 4 μg/mL clavulanic acid)” value with Bacteria stood at 1 µg/mL. Besides, in the experiment on Bacteria, the “MIC strain 20 (E. coli J62-TEM-3 + 4 μg/mL sulbactam)” value came to 1 µg/mL. Further, the “MIC strain 21 (E. coli J62-TEM-3 + 4 μg/mL tazobactam)” value with Bacteria stood at 2 µg/mL.

Take `C[C@H]1[C@H](NC(=O)/C(=N\OCCOc2ccc(C(=N)N)cc2)c2nc(N)sc2Cl)C(=O)N1S(=O)(=O)O` [Example 61, (2S,3S)-3-{[(2Z)-2-(2-Amino-5-chloro-1,3-thiazol-4-yl)-2-{[2-(4-carbamimidoylphenoxy)ethoxy]imino}acetyl]amino}-2-methyl-4-oxoazetidine-1-sulfonic acid]: the MIC in the experiment on E. coli ATCC25922 amounted to 2 µg/mL (≈ 3.66 µM); against K. pneumoniae 60, 2 µg/mL (≈ 3.66 µM); in the experiment with E. cloacae 34654, 2 µg/mL (≈ 3.66 µM); against C. freundii K21/3034 it was 1 µg/mL (≈ 1.83 µM); against M. morganii 126/3048 it was 0.5 µg/mL (≈ 0.916 µM); against P. aeruginosa PAO1 it was 2 µg/mL (≈ 3.66 µM). For the same compound, the MIC is 2 µg/mL (≈ 3.66 µM) in [1]; 16 µg/mL (≈ 29.3 µM) in experiment [2]; 2 µg/mL (≈ 3.66 µM) with A. baumannii ATCC15308; 16 µg/mL (≈ 29.3 µM) in the experiment on S. maltophilia ICB7569; not above 0.063 µg/mL in the experiment on S. aureus 133 (setting [4]); 8 µg/mL (≈ 14.7 µM) in the experiment with S. aureus 133 (setting [3]). The MIC in the experiment with H. influenzae ATCC 49247 was 0.25 µg/mL (≈ 0.458 µM); in the experiment with S. pneumoniae 113, not above 0.063 µg/mL; with B. fragilis 6688, 8 µg/mL (≈ 14.7 µM); in the experiment on C. perfringens DSM756 it was 8 µg/mL (≈ 14.7 µM); in the experiment on E. coli J62, 2 µg/mL (≈ 3.66 µM); in the experiment with E. coli J62-TEM-3, 8 µg/mL (≈ 14.7 µM). For the same compound, the “MIC strain 19 (E. coli J62-TEM-3 + 4 μg/mL clavulanic acid)” value in the experiment with Bacteria is 2 µg/mL. Besides, the “MIC strain 20 (E. coli J62-TEM-3 + 4 μg/mL sulbactam)” value in the experiment on Bacteria is 2 µg/mL. Also, the “MIC strain 21 (E. coli J62-TEM-3 + 4 μg/mL tazobactam)” value in the experiment on Bacteria is 2 µg/mL.
